Here are results for one compound from patent publication US20080279829A1, “Phenyl-(4-Phenyl-Pyrimidin-2-Yl)-Amines For Enhancing Immunotolerance” (priority 2005, published 2008).

The experiment concerns BALB/c diabetic female mice with C57BI/6 islet allograft. Briefly: cellular therapy with in vitro TEST COMPOUND-treated BM-DC in islet allograft transplantation. It is filed as in vivo. To be noted: injected i.v. one day before transplantation. The method, then:
To further investigate the effect of TEST COMPOUND on murine DCs bone marrow cells from BALB/c mice are differentiated with GM-CSF into bone marrow derived DCs (BM-DCs) in the presence or absence of TEST COMPOUND (20 nM). BM-DC are left immature or activated with LPS.
BM-DC are injected (3×105, i.v.) into BALB/c diabetic female mice one day before C57BI/6 islet allograft transplantation. Graft survival is monitored by weekly measurement of blood glucose level (*two-tailed t test).

As for `FC(F)(F)c1ccc(Nc2nccc(-c3cccc(Cl)c3)n2)cc1` [Compound B, N-[4-(3-Chloro-phenyl)-pyrimidin-2-yl]-N-(4-trifluoromethyl-phenyl)-amine], the “islets allograft acceptance after injection of LPS-activated (mature) treated recipient type BM-DC” value was “significantly prevents islet graft rejection”.
